Key:
hCB2R [1] = target: T1, hCB2R (Homo sapiens, UniProt P34972); assay: DiscoveRx HitHunter inhibition of FSK-stimulated cAMP accumulation; format: cell-based
Experimental: Inhibition of FSK-stimulated cAMP accumulation was measured using the DiscoveRx HitHunter assay.

hCB2R [2] = target: T1, hCB2R; assay: DiscoveRx PathHunter βarrestin2 recruitment; format: cell-based
Experimental: βarrestin2 recruitment was quantified using the DiscoveRx PathHunter® assay. […] Detection solution was added to cells (DiscoveRx), and cells were incubated for 60 min at room temperature. Chemiluminescence was measured on a Cytation5 plate reader (top read, gain 200, integration time 10,000 ms).

hCB1R = target: T2, hCB1R (Homo sapiens, UniProt P21554); assay: [3H]CP55,940 radioligand displacement, CHO-K1 hCB1R membranes; format: binding; details: % [3H]CP55,940 bound, 1 nM radioligand, 2 h
T2 construct: expressed in transfected cells; host or cells: CHO-K1 (ATCC CCL-61) stably expressing hCB1R; membranes
Experimental: (§1) CHO-K1 cells were thawed, diluted in Tris buffer (50 mM Tris [pH 7.4]) and homogenized in a 1 ml hand-held homogenizer. hCB1R and hCB2R CHO-K1 cell membranes were collected by cavitation in a pressure cell, and sedimented by ultracentrifugation. Pellets were resuspended in TME buffer (50 mM Tris, 5 mM MgCl2, 1 mM EDTA [pH 7.4]), and protein concentration was measured via the Bradford method according to the manufacturer’s directions (Bio-Rad Laboratories, Mississauga, ON). […] Radioligand binding began with the addition of CHO-K1 cell membranes (25 µg protein per sample). Assays were performed for 120 min at 37°C and stopped by the addition of ice-cold Tris binding buffer (pH 7.4), followed by vacuum filtration using a 24-well sampling manifold (Brandel Cell Harvester; Brandel Inc., Gaithersburg, MD, United States ). Brandel GF/B filter paper was soaked with wash buffer at 4 °C for at least 24 h. Each filter paper was washed 6 times with a 1.2 ml aliquot of Tris-binding buffer (pH 7.4), then air-dried and submerged in 5 ml of scintillation fluid (Ultima Gold XR, PerkinElmer). Liquid scintillation spectrometry was used to quantify radioactivity.

hCB2R [3] = target: T1, hCB2R; assay: [3H]CP55,940 radioligand displacement, CHO-K1 hCB2R membranes; format: binding
Experimental: as §1, with “Assays were performed for 120 min at 37°C and stopped by the addition of ice-cold Tris binding buffer (pH 7.4), followed by vacuum filtration using a 24-well sampling manifold (Brandel Cell Harvester; Brandel Inc., Gaithersburg, MD, United States ).” left out

[4] = system: human microglial cells (HMC3); assay: IL-6 and IL-10 release (ELISA) in LPS/TNFα-stimulated HMC3 cells; format: cell-based
Experimental: The concentrations of pro-inflammatory (IL-6) and anti-inflammatory (IL-10) interleukins were determined by performing specific ELISA assays (MyBioSource, San Diego, CA, United States ) on collected culture media. Human microglial cells (HMC3) were exposed to pretreatment with test compounds for 1 h followed by stimulation with LPS (10 μg/ml)/TNFα (50 ng/ml) for 24 h. In competition experiments, the CB2R antagonist (SR144528, 1 μM) or the CB2R positive allosteric modulator (EC21a 1 or 10 μM) were administered 15 min before agonist administration.

HMC3 cells = assay: MTT assay, HMC3 cell viability; format: cell-based, human
Experimental: FIGURE 7 MTT assay performed with different concentrations of JR64a. Data represent means ± S.E.M. from n = 3 independent experiments, performed in triplicate. Statistical analysis was performed by ordinary one-way ANOVA followed by Tukey’s multiple comparison test. ^# p < 0.05 vs. control.

T1 sequence (P34972 whole entry): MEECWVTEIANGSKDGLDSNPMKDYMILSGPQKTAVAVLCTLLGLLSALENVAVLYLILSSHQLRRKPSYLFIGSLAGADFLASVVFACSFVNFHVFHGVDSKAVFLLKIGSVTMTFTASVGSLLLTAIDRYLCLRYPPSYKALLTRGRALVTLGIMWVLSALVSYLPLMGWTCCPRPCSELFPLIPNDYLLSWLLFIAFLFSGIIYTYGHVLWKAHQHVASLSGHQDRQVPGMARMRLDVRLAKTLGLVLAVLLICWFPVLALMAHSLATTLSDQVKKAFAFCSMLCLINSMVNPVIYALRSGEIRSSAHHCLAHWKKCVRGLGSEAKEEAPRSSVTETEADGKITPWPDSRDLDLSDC
T2 sequence (P21554 whole entry): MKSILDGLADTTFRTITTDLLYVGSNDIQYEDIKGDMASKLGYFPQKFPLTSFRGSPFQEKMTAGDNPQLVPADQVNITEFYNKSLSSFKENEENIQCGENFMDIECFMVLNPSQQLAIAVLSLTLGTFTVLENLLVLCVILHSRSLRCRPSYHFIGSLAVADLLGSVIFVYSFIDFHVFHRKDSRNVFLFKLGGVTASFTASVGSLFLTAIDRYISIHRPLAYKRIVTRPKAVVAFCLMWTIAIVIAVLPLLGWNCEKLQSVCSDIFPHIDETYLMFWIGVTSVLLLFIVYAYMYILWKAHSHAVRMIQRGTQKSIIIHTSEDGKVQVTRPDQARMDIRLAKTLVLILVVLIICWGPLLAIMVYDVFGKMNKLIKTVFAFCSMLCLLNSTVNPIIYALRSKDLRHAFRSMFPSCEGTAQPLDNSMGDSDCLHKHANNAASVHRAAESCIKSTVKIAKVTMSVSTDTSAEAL

## Cc1c(Br)cn(CCCCCCCn2c(=O)c(C(=O)NC3CCC(C)CC3)cc3cccnc32)c(=O)c1NC(=O)C1CCCCCC1 (stereo not drawn) [JR64a, 1-(7-(5-bromo-3-(cycloheptanecarboxamido)-4-methyl-2-oxopyridin-1(2H)-yl)heptyl)-N-(4-methylcyclohexyl)-2-oxo-1,2-dihydro-1,8-naphthyridine-3-carboxamide]
hCB2R [1]
  EC50: 8.6 nM
hCB2R [1]; CHO-K1 hCB2R
  Response in inhibition of FSK-stimulated cAMP accumulation: modest partial agonist activity
hCB2R [1]; CHO-K1 hCB2R, 10 µM FSK, 90 min
  Inhibition of cAMP E max (% CP55,940) ± S.E.M: 38 ± 0.74 % CP55,940
hCB2R [2]
  EC50: > 10000 nM
hCB2R [2]; CHO-K1 hCB2R, 90 min
  βarrestin2 recruitment E max (% CP55,940) ± S.E.M: 45 ± 2.4 % CP55,940
hCB1R
  hCB1R E min (% CP55,940) ± S.E.M: 104 ± 4.7 % CP55,940
hCB2R [3]
  IC50: 0.6 nM
hCB2R [3]; % [3H]CP55,940 bound, 1 nM radioligand, 2 h
  hCB2R E min (% CP55,940) ± S.E.M: 20 ± 10.3 % CP55,940
[4]; 10 μM, LPS/TNFα-stimulated HMC3
  Anti-inflammatory properties: good anti-inflammatory properties
[4]; 10 or 25 μM, 1 h pretreatment, then LPS/TNFα 24 h
  Anti-inflammatory activity (IL-6 and IL-10 levels): marked anti-inflammatory activity
[4]; SR144528 1 μM 15 min before agonist, LPS/TNFα 24 h
  Anti-inflammatory activity after pretreatment with CB2R antagonist SR144528: completely abolished
HMC3 cells; 10 μM
  HMC3 cytotoxicity: no relevant HMC3 cytotoxicity
HMC3 cells; 25 μM
  Decrease in cell viability: ~10%
HMC3 cells; 1 and 10 μM
  Cytotoxic effects in HMC3 cells: no relevant cytotoxic effects
other
  melting point: 121 °C (dec.)
